What was measured:
Format in all cases: cell-based
AHR [1] = biological target: T1, AHR (Homo sapiens, UniProt P35869); experiment: In vitro assay 3: AHR-regulated CYP1A1 expression in human cell line (U937, qPCR, KA stimulation); details: U937 cells, 200 uM KA, 6 hours, CYP1A1 expression by qPCR; read-out: Assay 3: Hum CYP1A1 Antagonism IC50
T1 sequence (P35869 11-848): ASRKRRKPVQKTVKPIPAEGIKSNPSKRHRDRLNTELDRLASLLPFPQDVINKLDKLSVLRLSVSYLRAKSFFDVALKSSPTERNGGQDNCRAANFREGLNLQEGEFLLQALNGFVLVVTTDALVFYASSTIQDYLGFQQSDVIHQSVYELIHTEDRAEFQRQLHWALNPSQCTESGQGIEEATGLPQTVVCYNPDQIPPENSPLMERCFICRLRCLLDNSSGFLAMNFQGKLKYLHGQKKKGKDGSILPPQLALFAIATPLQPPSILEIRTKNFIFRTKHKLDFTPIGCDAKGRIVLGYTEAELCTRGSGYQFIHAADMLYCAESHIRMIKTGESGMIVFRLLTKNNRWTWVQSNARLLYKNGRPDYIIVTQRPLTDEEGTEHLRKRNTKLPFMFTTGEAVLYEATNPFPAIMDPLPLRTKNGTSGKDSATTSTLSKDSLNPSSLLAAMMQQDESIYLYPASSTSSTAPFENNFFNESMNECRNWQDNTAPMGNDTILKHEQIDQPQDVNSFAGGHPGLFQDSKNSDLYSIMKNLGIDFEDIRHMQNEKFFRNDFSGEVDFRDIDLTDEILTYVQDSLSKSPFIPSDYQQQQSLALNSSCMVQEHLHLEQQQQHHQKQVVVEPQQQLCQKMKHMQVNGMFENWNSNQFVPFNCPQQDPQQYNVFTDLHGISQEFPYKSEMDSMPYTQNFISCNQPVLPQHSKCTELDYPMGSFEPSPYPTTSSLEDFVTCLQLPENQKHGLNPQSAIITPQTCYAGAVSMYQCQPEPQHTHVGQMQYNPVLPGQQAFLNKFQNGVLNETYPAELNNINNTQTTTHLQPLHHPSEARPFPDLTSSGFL
Procedure: In Vitro Assay 3: AHR-Regulated CYP1A1 Expression in Human Cell Line
To assess the AHR inhibitory activity of the substances described in this application, the ability thereof to antagonise ligand-induced AHR gene regulation in a dose-dependent manner was quantified. For this purpose, quantitative PCR analysis was used to determine expression of the AHR-regulated gene CYP1A1 in a human monocytic U937 cell line upon stimulation with 200 uM KA in the presence and absence of AHR inhibitor. […] CYP1A1 expression was induced with 200 uM KA (positive control) in the presence or absence of the substances for 6 hours. Human U937 cells were typically incubated with eight different concentrations of the substances (1 nM, 3 nM, 10 nM, 30 nM, 100 nM, 300 nM, 1 uM and 3 uM) and analyzed in duplicate on the same microtitre plate. […] Unstimulated cells were used as the negative control. Taqman probes for human CYP1A1 (Hs01054797_g1) and human HPRT (Hs02800695_m1) were used to analyze fold expression of CYP1A1 of HPRT. Quantitation was performed on a Taqman SDS7900HT.

AHR [2] = biological target: T1, AHR; experiment: In vitro assay 1: antagonism in human cell line (transactivation assay, U87 cells prestimulated with kynurenic acid, DRE firefly luciferase reporter); design: host or cells: U87 glioblastoma cells, stably transfected with DRE firefly luciferase and renilla reporter constructs; details: 150 uM kynurenic acid, 20 hours, read-out: Assay 1: AHR-luc Hum Antagonism IC50
Method in brief: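 Antagonism measured after kynurenic acid prestimulation in U87 cells that express AHR endogenously and stably harbor a firefly luciferase gene under DRE control plus a constitutive renilla construct. Positive and negative controls served for normalization.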

AHR [3] = biological target: T1, AHR; experiment: In vitro assay 2: agonism in human cell line (transactivation assay, U87 cells, DRE firefly luciferase reporter); design: host or cells: U87 glioblastoma cells, stably transfected with DRE firefly luciferase and renilla reporter constructs; details: no kynurenic acid, 20 hours, read-out: Assay 2: AHR-luc Hum Agonism IC50
Method in brief: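 Agonist readout: DRE firefly luciferase, with constitutive renilla reporter, in stably transfected U87 cells expressing AHR endogenously. Normalization used positive control (300 uM kynurenic acid) and negative control.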

Row | SMILES | IC50 (AHR [1]) [µM] | IC50 (AHR [2]) [µM] | IC50 (AHR [3]) [µM]
1 | C[C@H](CO)NC(=O)c1cc(-c2ccc(C(F)(F)F)cc2)nn(-c2cccnc2)c1=O [Example 118, N-[(2R)-1-Hydroxypropan-2-yl]-3-oxo-2-(pyridin-3-yl)-6-[4-(trifluoromethyl)phenyl]-2,3-dihydropyridazine-4-carboxamide] | 0.057 | 0.0451 | > 20
2 | Cn1cc(-n2nc(-c3ccc(Cl)cc3)cc(C(=O)N[C@H]3CCC[C@@H]3O)c2=O)cn1 [Example 49, 6-(4-Chlorophenyl)-N-[(1S,2S)-2-hydroxycyclopentyl]-2-(1-methyl-1H-pyrazol-4-yl)-3-oxo-2,3-dihydropyridazine-4-carboxamide] | 0.00755 | 0.0065 | > 20
3 | O=C(N[C@@H](CO)C(F)(F)F)c1cc(-c2ccc(Cl)cc2)nn(-c2cccnc2)c1=O [Example 95, (−)-6-(4-Chlorophenyl)-3-oxo-2-(pyridin-3-yl)-N-[(2S)-1,1,1-trifluoro-3-hydroxypropan-2-yl]-2,3-dihydropyridazine-4-carboxamide] |  | 0.0623 | > 20
4 | CC(C)(O)C(NC(=O)c1cc(-c2ccc(Cl)cc2)nn(-c2cccnc2)c1=O)C(F)(F)F (centres unmarked) [Example 121, 6-(4-Chlorophenyl)-3-oxo-2-(pyridin-3-yl)-N-(1,1,1-trifluoro-3-hydroxy-3-methylbutan-2-yl)-2,3-dihydropyridazine-4-carboxamide] |  | 0.00254 | > 20
5 | O=C(N[C@@H]1COC[C@@H]1O)c1cc(-c2ccc(Cl)cc2)nn(-c2cncc(F)c2)c1=O (relative stereo) [Example 301, 6-(4-Chlorophenyl)-2-(5-fluoropyridin-3-yl)-N-[(cis)-4-hydroxytetrahydro-furan-3-yl]-3-oxo-2,3-dihydropyridazine-4-carboxamide] |  | 0.031 | > 20
6 | O=C(NCC1(O)CCC1)c1cc(-c2ccc(Cl)cc2)nn(-c2cnsc2)c1=O [Example 200, 6-(4-Chlorophenyl)-N-[(1-hydroxycyclobutyl)methyl]-3-oxo-2-(1,2-thiazol-4-yl)-2,3-dihydropyridazine-4-carboxamide] |  | 0.000734 | > 20
7 | O=C(N[C@H](CO)C(F)(F)F)c1cc(-c2ccc(Cl)cc2)nn(-c2cnn(C3CCC3)c2)c1=O [Example 41, 6-(4-Chlorophenyl)-2-(1-cyclobutyl-1H-pyrazol-4-yl)-3-oxo-N-[(2R)-1,1,1-trifluoro-3-hydroxypropan-2-yl]-2,3-dihydropyridazine-4-carboxamide] |  | 1.65 | > 20
8 | O=C(N[C@@H]1CSC[C@@H]1O)c1cc(-c2ccc(C(F)(F)F)cc2)nn(-c2cccnc2)c1=O (single isomer, unassigned) [Example 291, (−)-N-cis-4-hydroxy-tetrahydrothiophen-3-yl-3-oxo-2-(pyridin-3-yl)-6-[4-(trifluoromethyl)phenyl]-2,3-dihydropyridazine-4-carboxamide] |  | 0.00438 | > 20
9 | C[C@@H](NC(=O)c1cc(-c2ccc(C(F)(F)F)cc2)nn(-c2cnn(C)c2)c1=O)C(C)(C)O [Example 202, N-[(2R)-3-Hydroxy-3-methylbutan-2-yl]-2-(1-methyl-1H-pyrazol-4-yl)-3-oxo-6-[4-(trifluoromethyl)phenyl]-2,3-dihydropyridazine-4-carboxamide] |  | 0.000825 | > 20
10 | C[C@@H](NC(=O)c1cc(-c2ccc(Cl)cc2)nn(-c2cnsc2)c1=O)C(C)(C)O [Example 326, 6-(4-Chlorophenyl)-N-[(2R)-3-hydroxy-3-methylbutan-2-yl]-3-oxo-2-(1,2-thiazol-4-yl)-2,3-dihydropyridazine-4-carboxamide] |  | 0.000504 | > 20
11 | CC(C)(O)CNC(=O)c1cc(-c2ccc(C(F)(F)F)cc2)nn(-c2cnsc2)c1=O [Example 208, N-(2-Hydroxy-2-methylpropyl)-3-oxo-2-(1,2-thiazol-4-yl)-6-[4-(trifluoromethyl)phenyl]-2,3-dihydropyridazine-4-carboxamide] |  | 0.00122 | > 20
12 | O=C(N[C@H]1CCC[C@@H]1O)c1cc(-c2ccc(C(F)F)nc2)nn(-c2cccnc2)c1=O [Example 165, 6-[6-(Difluoromethyl)pyridin-3-yl]-N-[(1S,2S)-2-hydroxycyclopentyl]-3-oxo-2-(pyridin-3-yl)-2,3-dihydropyridazine-4-carboxamide] |  | 0.209 | > 20

The next lines start with the values.

Row | IC50 (AHR [1]) [µM] | IC50 (AHR [2]) [µM] | IC50 (AHR [3]) [µM] | SMILES
13 | 0.00169 | 0.00188 | > 20 | O=C(N[C@H]1CCC[C@@H]1O)c1cc(-c2ccc(C(F)(F)F)cc2)nn(-c2cccnc2)c1=O [Example 102, N-[(1S,2S)-2-Hydroxycyclopentyl]-3-oxo-2-(pyridin-3-yl)-6-[4-(trifluoromethyl)phenyl]-2,3-dihydropyridazine-4-carboxamide]
14 |  | 0.0497 | > 20 | C[C@H](NC(=O)c1cc(-c2ccc(C(F)(F)F)nc2)nn(-c2cncc(F)c2)c1=O)C(C)(C)O [Example 340, 2-(5-Fluoropyridin-3-yl)-N-[(2S)-3-hydroxy-3-methylbutan-2-yl]-3-oxo-6-[6-(trifluoromethyl)pyridin-3-yl]-2,3-dihydropyridazine-4-carboxamide]
15 |  | 0.00164 | > 20 | Cn1cc(-n2nc(-c3ccc(OC(F)F)cc3)cc(C(=O)NC(C(C)(C)O)C(F)(F)F)c2=O)cn1 (centres unmarked) [Example 305, 6-[4-(Difluoromethoxy)phenyl]-2-(1-methyl-1H-pyrazol-4-yl)-3-oxo-N-(1,1,1-trifluoro-3-hydroxy-3-methylbutan-2-yl)-2,3-dihydropyridazine-4-carboxamide]
16 |  | 0.00748 | > 20 | Cn1cc(-n2nc(-c3ccc(OC(F)(F)F)cc3)cc(C(=O)N[C@@H]3COC[C@@H]3O)c2=O)cn1 (single isomer, unassigned; enantiomer 2) [Example 57, N-[(cis)-4-Hydroxytetrahydrofuran-3-yl]-2-(1-methyl-1H-pyrazol-4-yl)-3-oxo-6-[4-(trifluoromethoxy)phenyl]-2,3-dihydropyridazine-4-carboxamide, Enantiomer 2]
17 |  | 0.178 | > 20 | O=C(NC[C@H](O)C(F)(F)F)c1cc(-c2ccc(CF)cc2)nn(-c2cccnc2)c1=O [Example 280, 6-[4-(Fluoromethyl)phenyl]-3-oxo-2-(pyridin-3-yl)-N-[(2S)-3,3,3-trifluoro-2-hydroxypropyl]-2,3-dihydropyridazine-4-carboxamide]
18 |  | 0.0143 | > 20 | Cn1cc(-n2nc(-c3ccc(C(F)F)nc3)cc(C(=O)N[C@H]3CCCC[C@H]3O)c2=O)cn1 [Example 54, 6-[6-(Difluoromethyl)pyridin-3-yl]-N-[(1S,2R)-2-hydroxycyclohexyl]-2-(1-methyl-1H-pyrazol-4-yl)-3-oxo-2,3-dihydropyridazine-4-carboxamide]
19 |  | 0.181 | > 20 | CCC(CO)NC(=O)c1cc(-c2ccc(C)cc2)nn(-c2cnn(C)c2)c1=O (single isomer, unassigned) [Example 6, N-(1-Hydroxybutan-2-yl)-6-(4-methylphenyl)-2-(1-methyl-1H-pyrazol-4-yl)-3-oxo-2,3-dihydropyridazine-4-carboxamide]

From patent publication US12522594B2, “2-heteroaryl-3-oxo-2,3-dihydropyridazine-4-carboxamides for the treatment of cancer” (Deutsches Krebsforschungszentrum, priority 2017, dated 2026)
